Measured values reported in US20250169495A1, “COMPOSITIONS AND METHODS FOR CONTROLLING DROSOPHILA FLIES” (Rutgers, The State University of New Jersey, priority 2023, published 2025).

Experiments:
[1] = tested on: Drosophila suzukii; experiment: Field cage experiments, cultivated highbush blueberry bushes; format: in vivo
Method: Field cage experiments were conducted from June until July using highbush blueberries (V. corymbosum var. ‘Bluecrop’). The studies were carried out in 5.5 m long×2.7 m tall cages, constructed with a PVC pipe frame covered with No-See-Um mesh (Quest Outfitters Inc., Sarasota, FL, USA) (FIG. 6C). Cages were placed in separate rows within a blueberry field, with bushes spaced approx. 0.76 m apart within the rows and 3.05 m between rows. Each row contained two cages at least 9 m in distance. To avoid interference between treatments, alternate cages were used during testing, ensuring that no adjacent cages contained sachets simultaneously. Two, 3-m rebar poles were used to reinforce the mesh on the long sides of each cage as well as 10 cm long garden staples to hold mesh flush to the ground, while the shorter ends were secured with clips to allow access to the cage. Each cage contained five blueberry bushes approx. 1.5 m in height. Sachets containing ethyl butanoate, ethyl (E)-but-2-enoate, or 2-pentylfuran were prepared as described before. To test the effects of the repellents on the treated (focal) bush and in neighboring bushes at various distances, two sachets of the same compound were hung from one of the end bushes in each cage (FIG. 6D). There were four treatments: 1) ethyl butanoate, 2) ethyl (E)-but-2-enoate, 3) 2-pentylfuran, and 4) control (no repellent). Each treatment was replicated four times, with each cage assigned to a single treatment, resulting in a total of 16 cages. Twenty-four hours after deploying the sachets, 120 flies (approximately 60 males and 60 females) were released into each cage at 18:00 hrs (N=120 flies×4 treatments×4 replicates=1,920 total flies). To ensure even distribution within the cages, 30 flies were released at four equidistant points between the bushes. A pre-sampling of the berries, conducted before the flies were released, confirmed the absence of any infestation. Berries were then collected 1-, 2-, and 3-days post-treatment. From every other bush (starting at the focal bush) in the cage, 50 berries from the top half and 50 from the bottom half were collected into two separate 236.6 mL deli containers lined with two cotton pads. From each berry sample, a random subsample of 10 berries were examined and egg counts recorded before being returned to the original container. The blueberries were incubated on a light bench in the laboratory for up to two weeks, as previously described, and adult emergence was recorded. The sachets were weighed before deployment and 3 days after deployment to measure the emission rates of each compound. Field cage data for both oviposition and adult emergence were non-normal, so non-parametric tests were applied using R statistical software. The effects of ‘Treatment’ (untreated control, ethyl butanoate, ethyl (E)-but-2-enoate, and 2-pentylfuran) across ‘Bush Position’ (focal, center, end) and ‘Day After Treatment’ (1, 2, 3 DAT) were assessed using the Kruskal-Wallis Test. When significant Treatment effects were found, post-hoc separation was performed using Dunn's Test.

[2] = tested on: Drosophila suzukii adults; experiment: Multiple choice bioassay #2: known and putative repellents; format: in vivo; conditions: 50 μL neat; six traps per arena; 24 h; n=6
Method: Within each arena, six gated traps were positioned randomly in a circle (40 cm diameter) at equal distance with each trap 20 cm apart along the circumference. Each gated trap contained ˜5 g of store-bought organic blueberry fruit (n=5), as described elsewhere herein. One of the six traps served as a control (with blueberry fruit only) and the remaining five traps had one of the repellents added to the blueberry fruit. Each volatile (50 μL, neat) was released from a 1 mL polyethylene vial with a piece of cotton placed inside each trap (control traps had vials with cotton but without the volatile). A vial with a cotton ball soaked with deionized water was placed in the middle of the arena. Roughly 150 D. suzukii adults (1:1 male: female ratio) were released inside each arena and the number and sex of flies inside treatment and control traps was recorded after 24 h. The experiment started at 1:00 p.m., was replicated 6 times, and was done in a laboratory under 22±2° C., 55±5% RH, 16:8 (L:D) h. Data from multiple choice assays on the percent of male and female D. suzukii adults responding to each volatile were compared using ANOVA (Minitab version 17; Minitab Inc., State College, PA, USA). The ANOVA model included treatment, sex, and their interaction as fixed factors and block (replicate) as a random factor. A multi-comparison Tukey test (Minitab) was used to determine differences among treatments. Percent data were arcsine square-root transformed prior to ANOVA. Pairwise choice assays were analyzed using G-tests with William's correction. Non-responders were excluded from the statistical analyses.

| Structure (SMILES) | adult emergence ([1]; 1 DAT, center bush) | adult emergence ([1]; 1 DAT, end bush) | egg counts ([1]; 1 DAT, end bush) | adult emergence ([1]; 2 DAT, center bush) | egg counts ([1]; 2 DAT, center bush) | adult emergence ([1]; 2 DAT, end bush) | egg counts ([1]; 2 DAT, end bush) | adult emergence ([1]; 3 DAT, center bush) | egg counts ([1]; 3 DAT, center bush) | adult emergence ([1]; 3 DAT, end bush) | egg counts ([1]; 3 DAT, end bush) | adult emergence ([1]; 3 DAT, focal bush) | egg counts ([1]; 3 DAT, focal bush) | strength of repellency among the five repellents (rank) [2] | egg counts ([1]; 1 DAT, central bush) |
| --- | --- | --- | --- | --- | --- | --- | --- | --- | --- | --- | --- | --- | --- | --- | --- |
| C/C=C/C(=O)OCC [ethyl (E)-but-2-enoate] | fewest adults emerge | fewest adults emerge | fewest eggs | fewest adults emerge | lowest egg counts | fewest adults emerge | lowest egg counts | lowest adult emergence | lowest egg count | significantly different compared to the other repellents | lowest egg count | lowest adult emergence | lowest egg count | the most repellent | – |
| CCCCCc1ccco1 [2-pentylfuran, reference compound] | – | – | fewest eggs | – | – | – | – | lowest adult emergence | – | – | – | lowest adult emergence | – | the least repellent | lower |
